From the METLIN SMRT retention time set (Domingo-Almenara et al. 2019) come the findings set out here.

The nature of the series: gradient 5% acetonitrile 3 min, to 50% in 2 min, to 85% in 15 min, held 3 min, 100 µL/min. Conditions: column: Zorbax Extend-C18 2.1 x 50 mm; eluents: water / acetonitrile, 0.1% formic acid. A digest of the protocol:
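Mixtures of ~100 pure standards were chromatographed on a Zorbax Extend-C18 column (2.1 × 50 mm, 1.8 μm) at 100 μL/min using water and acetonitrile, each with 0.1% formic acid. Detection used a quadrupole time-of-flight mass spectrometer in positive and negative ionization mode, and data collection spanned 3 months. Retention time was obtained from adduct peaks picked computationally and each checked manually.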
Take `Cc1ccc(C(=O)Nc2ccc3c(c2)Sc2ncccc2C(=O)N3C(C)C)s1`: the RP-LC retention time turned out to be 886 s. In the case of `O=C(NCc1ccc(Cl)cc1)c1ccc(Oc2nccnc2N2CCSCC2)cc1` it was 986 s; in that of `CNCC[C@H](Oc1ccc(C(F)(F)F)cc1)c1ccccc1`, 818 s; in that of `CC(C)c1ccc(-n2nc(N3CCN(C(=O)CCC(=O)N4CCOCC4)CC3)ccc2=O)cc1`, 695 s. `O=C(Cn1cccc(-c2nc(-c3ccc(F)cc3)no2)c1=O)Nc1ccc2c(c1)OCCO2`: the RP-LC retention time stood at 832 s. Take `CCS(=O)(=O)Nc1cccc(OCc2nnc(-c3ccc(C)cc3)o2)c1`: the RP-LC retention time was 867 s. Then `Cc1ccc(S(=O)(=O)N2CCC(OCc3noc(C4CCCO4)n3)CC2)cc1F` (centres undefined), with 936 s. Compound `O=C(CN1CCN(C(=O)Nc2ccc(Cl)cc2)CC1=O)NC1CCCCC1` yielded an RP-LC retention time of 724 s.

For the compound `CCNc1cc(C)nc(N2CCN(S(=O)(=O)c3ccc(-c4ccccc4)cc3)CC2)n1`, the RP-LC retention time is 829 s. Compound `CCOc1ccc(CNC(=O)C2CCCN(c3nn4c(=O)c5c(nc4s3)CCCC5)C2)cc1` (centres undefined) displayed an RP-LC retention time of 784 s.

As to `O=C(Nc1nc(-c2ccc(F)cc2F)cs1)c1ccccc1F`, the RP-LC retention time amounted to 1130 s. Then `O=C(CN1c2ccc(F)cc2-c2ccccc2S1(=O)=O)N1CCCCC1`, with 915 s; and `CN(CC1CCOC1)S(=O)(=O)Cc1ccccc1F` (centres undefined), with 755 s.

`COc1ccc(-n2nnc(-c3nsc(Nc4ccc(OC)c(Cl)c4)n3)c2C)cc1` showed an RP-LC retention time of 1010 s. In the case of `COc1cccc(N2CCN(S(=O)(=O)c3cc(-c4nc(C(C)C)cs4)cs3)CC2)c1` it was 1310 s; in that of `CCC(=O)N(C)CCc1noc(COc2cccc(C(F)(F)F)c2)n1`, 842 s; in that of `CC(C)Cc1cc(-c2nn3c(COc4ccc(Br)cc4)nnc3s2)n[nH]1`, 1030 s.

As for `Cc1ccc(NC(=O)C2CCCN(c3nc4ccccc4nc3C(F)(F)F)C2)c(C)c1` (centres undefined), the RP-LC retention time turned out to be 1230 s. Then `COc1ccc(Cl)c2c(=O)c3c([nH]c12)CCN(CC(=O)Nc1cccc(Cl)c1C)C3`, with 651 s. In the case of `Cc1cc(C)c2c(N(C)C)nc(C(=O)NC(C)c3ccccn3)nc2n1` (centres undefined) it was 559 s; in that of `COCC(=O)N1CCCc2ccc(NC(=O)NCc3cccs3)cc21`, 662 s. In the case of `Cc1nc(-c2ccc(-n3cc(C(=O)Nc4ccc(Br)cc4F)c(C)n3)cc2)no1` it was 962 s. For the compound `CCn1ccc2sc(C)c(C(=O)NCCCN3CCCC3=O)c2c1=O`, the RP-LC retention time was determined as 594 s.

Compound `COc1cccc(C(=O)c2oc3ccccc3c2NC(=O)c2ccccc2[N+](=O)[O-])c1` registered an RP-LC retention time of 1080 s. As to `COc1cccc(NC(=O)c2c(C)oc3nc(C)nc(N4CCCC4)c23)c1`, the RP-LC retention time amounted to 743 s.

The compound `O=C(NC1CCCCC1)C1CCN(C(=O)c2cc(-c3ccncc3)n[nH]2)CC1` showed an RP-LC retention time of 590 s. Then `Cc1ccc(CS(=O)(=O)N2CCc3nc(-c4ccc(Cl)cc4)ncc3C2)cc1`, with 1210 s; and `CCOc1ccc(CNC(=O)c2sccc2S(=O)(=O)N(C)c2ccc(OCC)cc2)cc1`, with 1170 s; and `CCCn1cc(C(=O)NC(C)c2cccnc2)c2cccnc21` (centres undefined), with 597 s. The compound `COc1ccc(C2Cn3nnc(-c4nc(-c5ccc(C(F)(F)F)cc5)no4)c3CO2)cc1` (centres undefined) had an RP-LC retention time of 1270 s. On to `COc1cnc(NS(=O)(=O)c2ccc(N)cc2)nc1`, for which the RP-LC retention time is 675 s.

As to `Cc1ccc(NC(=O)Cn2nnc(C(=O)NCc3cccs3)c2N)cc1`, the RP-LC retention time worked out at 593 s. Then `Cc1cc(-c2ccc(S(=O)(=O)N3CCC(C(=O)NCCC(C)C)CC3)o2)n[nH]1`, with 783 s; and `CC(C)NC(=O)C1CCCN(c2nc3ncn(CC(=O)Nc4ccc(C(C)C)cc4)c(=O)c3s2)C1` (centres undefined), with 785 s; and `Cc1cccn2c(NC(=O)c3cc4ccccc4oc3=O)c(-c3ccccc3)nc12`, with 695 s. In the case of `O=C(CSc1ccc(F)cc1)NCC1(CO)CC1` it was 629 s; in that of `CCc1onc(C)c1C1CCCN1C(=O)CCc1ccc(OC)cc1` (centres undefined), 839 s; in that of `Cc1ccc(NC(=O)C2CCCN(C(=O)C3Sc4ccccc4NC3=O)C2)cc1Cl` (centres undefined), 893 s.

`CCCCNC(=O)C1CCC(=O)N(c2ccc(OC)cc2)C1c1ccc(F)cc1` (centres undefined) came in with an RP-LC retention time of 757 s. Then `CC(C)CNC(=O)C1CCCN(c2ncnc3c2oc2ccccc23)C1` (centres undefined), with 725 s. In the case of `Cc1ccc(-n2ncc3c(=O)n(Cc4nc(-c5ccc(OC(F)(F)F)cc5)no4)cnc32)cc1` it was 1200 s; in that of `O=C(NCCCN1CCOCC1)c1nc2ccccn2c1-c1ccc(Cl)cc1`, 629 s. As for `COc1cc(OC)c(/C=C2/C(=O)Nc3ccccc32)c(OC)c1`, the RP-LC retention time turned out to be 986 s. Then `CC1=C(C(=O)N2CCOCC2)C(c2ccc(Br)cc2)C2=C(CC(C)(C)CC2=O)N1` (centres undefined), with 723 s; and `COc1ccc(Cn2c(=O)c3sccc3n(Cc3nc(-c4ccc(F)c(Cl)c4)no3)c2=O)cc1`, with 1190 s. Then `COc1ccc(C2CC(=O)N(c3ccc(F)c(F)c3)C(=O)C2)cc1OC`, with 852 s. In the case of `CCOC(=O)c1cnc2nc(C)ccc2c1Nc1cccc(Cl)c1F` it was 764 s; in that of `Cc1ccc(CN2C(=O)NC3(CCN(C(=O)c4sccc4C)CC3)C2=O)cc1`, 825 s. The compound `CC(=O)c1cccc(NC(=O)COc2cc(C)nc(N3CCCC3)n2)c1` had an RP-LC retention time of 616 s. In the case of `CCOc1ccc(S(=O)(=O)N2CC(F)(F)C[C@H]2CN2CCc3ccccc3C2)cc1` it was 798 s. The compound `COc1ccc(N2CCN(CCCNC(=O)C3CCCN(c4nccc(C)n4)C3)CC2)cc1` (centres undefined) gave an RP-LC retention time of 603 s.

In turn, `Cc1ccccc1-c1nn2c(CSc3ccccc3)nnc2s1` gave an RP-LC retention time of 1030 s. For `CC(C)CNC(=O)C(=O)NCc1ccccn1`, the RP-LC retention time worked out at 552 s. Compound `O=C(Nc1ccc(Br)cc1)NC1CCN(c2ccccc2)C1=O` (centres undefined) returned an RP-LC retention time of 849 s. Turning to `O=C(C1CC(=O)N(c2ccc3c(c2)CCN3C(=O)C2CC2)C1)N1CCOCC1` (centres undefined), the RP-LC retention time stood at 634 s. The compound `CCOc1ccc(C(=O)NCCc2c[nH]c3ccc(C)cc23)cc1OCC` registered an RP-LC retention time of 910 s.

For `Cc1nc(-c2ccc(F)cc2)sc1C(=O)N(C)C`, the RP-LC retention time amounted to 767 s. Then `O=C(NC1CCCCC1)N1CCN(c2ccc3nnc(C4CC4)n3n2)CC1`, with 645 s; and `O=C(NCc1ccc(F)cc1Cl)c1csc(C(=O)NC2CCCC2)n1`, with 968 s; and `COc1ccc(C(=O)c2cnc3ccc(OC)cc3c2N2CCN(C)CC2)cc1`, with 561 s. For the compound `Cc1cc2c(N3CCCC(C(=O)NCc4ccc(N5CCOCC5)cc4)C3)nccc2s1` (centres undefined), the RP-LC retention time was 711 s. In the case of `CCOc1ccc(-c2[nH]ncc2CNS(=O)(=O)c2ccc(OC)c(Cl)c2)cc1` it was 860 s; in that of `CC(C)n1c(=O)sc2cc(S(=O)(=O)N3CCC(C(=O)N4CCCCC4)CC3)ccc21`, 900 s; in that of `Cc1ccc(CNC(=O)Nc2ccc3nncn3c2)cc1`, 680 s. In the case of `Cc1ccc(S(=O)(=O)N(c2ccc(Br)cc2)C2C=CS(=O)(=O)C2)cc1` (centres undefined) it was 887 s; in that of `Nc1nc(N2CCN(c3ccccn3)CC2)ncc1C(=O)NCc1ccccc1`, 592 s; in that of `CSc1ccccc1C(=O)NCC1CCN(C(=O)c2ccccc2F)CC1`, 704 s.

With `COC(=O)c1ccc(NC(=O)Cn2nc3n(c2=O)CCCC3)cc1`, the RP-LC retention time is 647 s. Then `COc1ccc(-c2ncc3c(n2)CCN(C(=O)c2c(F)cccc2Cl)C3)cc1`, with 966 s; and `COc1ccc(CNC(=O)C2CCN(c3cncnc3N3CCOCC3)CC2)cc1`, with 651 s. With `Cc1cc(NC(=O)CSc2nc(-c3cccnc3)ccc2C#N)no1`, the RP-LC retention time was 626 s.

With `CCN1CCn2cc(S(=O)(=O)Nc3ccc(C)cc3)cc2C1=O`, the RP-LC retention time was found to be 723 s. Then `CCOC(=O)C1CCCN(C(=O)C2CCN(c3cc(N4CCCCC4)ncn3)CC2)C1` (centres undefined), with 666 s; and `CCN1C(=O)c2cccnc2Sc2cc(CNC(=O)c3cccc(F)c3)ccc21`, with 791 s; and `CCc1ccc(NC(=O)Cn2c(C(C)C)nc3c(c2=O)CCN(Cc2ccccc2)C3)cc1`, with 705 s. For the compound `Cc1ccc(-c2csc(-n3nc(C)c(CC(=O)N4CCCCCC4)c3C)n2)cc1`, the RP-LC retention time stood at 1270 s. In the case of `Cc1c(Cl)cccc1S(=O)(=O)N1CCc2nc(-c3ccccc3)ncc2C1` it was 1210 s; in that of `COC(=O)c1cc(S(=O)(=O)N2CCCC2C(=O)Nc2ccc(OC)cc2)cn1C` (centres undefined), 818 s; in that of `COc1c(C(=O)NC2CC2)sc2cc(Cl)ccc12`, 965 s.
